According to patent publication US20240189389A1, “DRUG WITH PROLONGED ANALGESIC ACTION” (priority 2020, published 2024):

Columns and labels:
[1] = reduced only in part with repeated dosing; cited from earlier work
ICR male white mice = assay: Formalin test on mice; type: in vivo; conditions: oral, 100 mg/kg (positive control)
Procedure: Tests are performed on ICR male white mice of 20-30 g body weight. Mice are divided into 4 groups (a control one and experimental ones) of 9 mice each. The tested HCRG21 peptide is dissolved in a sterile physiological saline solution and is administered intramuscularly at the doses of 0.1 and 1.0 mg/kg. Control animals receive the equivalent volume of sterile physiological saline solution. Ibuprofen at the dose of 100 mg/kg is used as a positive control and is administered to animals orally. 60 minutes later all mice are injected in a hinder paw pad with 20 μl of 2.5% formalin solution. Patterns of pain response are recorded immediately after the injection (a number of paw licking episodes and a hind paw withdrawal time) according to the following schedule:
1st period (acute): for 20 min after the injection patterns are recorded per 1 min with 6-minute intervals (0, 6, 12 and 18 min);
2nd period (tonic): 30 min after the formalin injection patterns are recorded for 20 min per 1 min with 6-minute intervals (30, 36, 42, 48 min).
The analgesic effect is evaluated by the decrease of the duration of pain response patterns relative to control animals (FIG. 9). The results are statistically processed, statistical significance of differences of the results of control and experimental group is determined using the Student's test.

[2] = phase I clinical trial data; cited from earlier work
TRPV1 = molecular target: T1, TRPV1 (Homo sapiens, UniProt Q8NER1); conditions: high dose (400 mg); cited from earlier work
T1 construct: host or cells: human subjects (in vivo)
T1 sequence (Q8NER1 whole entry): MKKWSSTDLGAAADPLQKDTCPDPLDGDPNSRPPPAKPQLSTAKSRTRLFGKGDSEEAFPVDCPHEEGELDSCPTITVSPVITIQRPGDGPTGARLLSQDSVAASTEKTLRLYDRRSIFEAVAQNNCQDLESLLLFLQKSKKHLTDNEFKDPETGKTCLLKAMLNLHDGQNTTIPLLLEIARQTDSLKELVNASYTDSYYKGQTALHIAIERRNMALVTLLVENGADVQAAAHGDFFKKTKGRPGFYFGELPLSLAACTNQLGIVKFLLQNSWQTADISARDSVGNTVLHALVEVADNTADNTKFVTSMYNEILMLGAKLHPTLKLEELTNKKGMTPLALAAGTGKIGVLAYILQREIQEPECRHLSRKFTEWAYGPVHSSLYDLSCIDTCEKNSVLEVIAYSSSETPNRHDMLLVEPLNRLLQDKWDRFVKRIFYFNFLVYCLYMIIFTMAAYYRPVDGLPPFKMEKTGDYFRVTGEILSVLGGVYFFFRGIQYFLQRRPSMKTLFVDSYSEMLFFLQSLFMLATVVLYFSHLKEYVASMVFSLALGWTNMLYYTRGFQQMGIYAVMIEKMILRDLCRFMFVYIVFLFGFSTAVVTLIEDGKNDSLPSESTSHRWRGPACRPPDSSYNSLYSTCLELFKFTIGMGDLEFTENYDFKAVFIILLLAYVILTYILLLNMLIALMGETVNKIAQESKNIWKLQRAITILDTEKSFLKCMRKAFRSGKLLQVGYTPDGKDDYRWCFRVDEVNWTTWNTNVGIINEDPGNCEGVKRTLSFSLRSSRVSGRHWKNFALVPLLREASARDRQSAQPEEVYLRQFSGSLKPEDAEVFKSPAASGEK

In the case of `CC(=O)Nc1nc2c(Oc3cc(-c4ccc(C(F)(F)F)cc4)ncn3)cccc2s1` [AMG-517], the “temperature increase in humans” value [1] is given as “high and steady temperature increase”.
For `CC(C)Cc1ccc(C(C)C(=O)O)cc1` (stereo not shown) [Ibuprofen, ibuprofen], the “analgesic properties compared with HCRG21” value (ICR male white mice) was “concedes much to the HCRG21 peptide”.
For `O=C(Nc1ccccc1Br)N[C@@H]1CCN(c2ccc(C(F)(F)F)cn2)C1` [SB-705498], the elimination half-life [2] is given as 35 to 93 h and the “pharmacodynamic activity in the reduction of inflammation induced by heat injuries, UV radiation and capsaicin” value (TRPV1) is given as “evidences a target pharmacodynamic activity”.
